Assay [1] is described as follows: toxicity to human hepatoma HepG2 cells – cell-based, cherry-picked samples, cytotoxicity control, dose response (AID 1159577). The format is functional.
A short description of assay [2]: P. falciparum Dd2 growth inhibitors, dose response, SYBR Green, cherry-picked samples (AID 1159567). In kind it is functional, cell-based.
The target of assay [3] is G-protein coupled receptor 183 (Homo sapiens, UniProt P32249). The experiment in a line: SAR confirmation of small molecule antagonists of the EBI2 receptor via a luminescent beta-arrestin assa. In kind it is functional.
Assay [4] can be described thus: IC50 of insulin release inhibition, rat insulinoma INS-1E line, 5 mM glucose, cell-based (AID 1117331). In kind it is functional.
In assay [5] the target is Sphingosine 1-phosphate receptor 2 (Homo sapiens, UniProt O95136). The experiment in a line: Dose Response Cell Based Assay for Agonists of the S1P2 Receptor. [Related pubchem assays: 729, 736, 843 ]. In kind it is functional.
Assay [6] is described as follows: Trypanosoma cruzi growth suppression in host cells – NIH3T3 host cells, beta-gal luminescence, confirmation (AID 2044).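 Further: intracellular parasites grown in NIH/3T3 mouse fibroblasts as host cells; luminescent beta-galactosidase reporter signal from transgenic T. cruzi replicating inside host cells; inhibitors lower the luminescence signal.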 The format is functional, cell-based.
The target of the next assay is T1, Protein RecA (Mycobacterium tuberculosis, UniProt P9WHJ3).
T1 sequence (P9WHJ3 whole entry): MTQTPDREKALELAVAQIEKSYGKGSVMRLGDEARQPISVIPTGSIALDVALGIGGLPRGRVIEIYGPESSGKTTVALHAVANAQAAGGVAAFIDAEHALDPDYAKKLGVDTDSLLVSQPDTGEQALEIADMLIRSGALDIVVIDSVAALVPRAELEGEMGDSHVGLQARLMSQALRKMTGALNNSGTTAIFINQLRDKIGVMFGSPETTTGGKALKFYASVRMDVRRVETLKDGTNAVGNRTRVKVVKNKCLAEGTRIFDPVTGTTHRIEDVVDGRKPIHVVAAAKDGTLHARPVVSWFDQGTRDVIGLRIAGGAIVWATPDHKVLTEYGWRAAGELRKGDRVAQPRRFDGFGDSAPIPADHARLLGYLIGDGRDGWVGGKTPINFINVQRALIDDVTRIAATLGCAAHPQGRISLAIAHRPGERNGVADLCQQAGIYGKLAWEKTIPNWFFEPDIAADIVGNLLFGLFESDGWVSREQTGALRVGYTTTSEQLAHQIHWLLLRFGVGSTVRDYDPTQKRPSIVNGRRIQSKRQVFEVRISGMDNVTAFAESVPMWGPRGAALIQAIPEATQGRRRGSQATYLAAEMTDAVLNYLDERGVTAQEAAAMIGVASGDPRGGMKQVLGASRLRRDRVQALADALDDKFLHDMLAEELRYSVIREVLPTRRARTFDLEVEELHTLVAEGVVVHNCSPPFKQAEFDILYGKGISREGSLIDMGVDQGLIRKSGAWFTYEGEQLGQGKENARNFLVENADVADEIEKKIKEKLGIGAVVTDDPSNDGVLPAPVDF
Kind of assay: Fluorescence Cell-Free Homogeneous Dose Retest to Identify Inhibitors of RecA-Intein Splicing Activity. [Related pubchem assays (depositor defined):AID2097, AID2223, AID489010, AID492950]. In kind it is functional.

The target of assay [7] is T2, Replicative DNA helicase DnaB (Mycobacterium tuberculosis, UniProt P9WMR3).
T2 sequence (P9WMR3 whole entry): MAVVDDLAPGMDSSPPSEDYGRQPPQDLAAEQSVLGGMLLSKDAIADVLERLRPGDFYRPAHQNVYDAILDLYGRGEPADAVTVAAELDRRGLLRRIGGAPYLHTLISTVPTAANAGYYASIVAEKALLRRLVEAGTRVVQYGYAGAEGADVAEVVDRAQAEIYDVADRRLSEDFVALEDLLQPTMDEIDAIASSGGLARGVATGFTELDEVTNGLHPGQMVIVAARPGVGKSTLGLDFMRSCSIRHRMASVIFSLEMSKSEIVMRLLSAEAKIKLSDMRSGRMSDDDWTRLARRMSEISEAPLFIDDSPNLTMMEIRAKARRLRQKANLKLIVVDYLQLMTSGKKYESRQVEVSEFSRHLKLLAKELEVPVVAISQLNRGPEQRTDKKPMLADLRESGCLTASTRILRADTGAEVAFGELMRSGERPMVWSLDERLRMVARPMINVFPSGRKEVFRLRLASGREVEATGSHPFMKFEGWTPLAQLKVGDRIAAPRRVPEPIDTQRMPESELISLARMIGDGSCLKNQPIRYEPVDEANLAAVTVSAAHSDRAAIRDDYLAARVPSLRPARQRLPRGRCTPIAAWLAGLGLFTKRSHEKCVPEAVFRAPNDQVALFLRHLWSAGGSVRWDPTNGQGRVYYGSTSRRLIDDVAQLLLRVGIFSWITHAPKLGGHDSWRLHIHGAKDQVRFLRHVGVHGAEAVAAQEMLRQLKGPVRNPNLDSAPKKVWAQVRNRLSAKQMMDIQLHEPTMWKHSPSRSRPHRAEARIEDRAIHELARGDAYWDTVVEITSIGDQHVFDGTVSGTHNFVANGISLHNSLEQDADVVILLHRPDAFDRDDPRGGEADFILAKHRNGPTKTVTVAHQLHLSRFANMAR
Kind of assay: DnaB intein splicing inhibitors, dose response, biochemical, cell-free fluorescence (AID 449749). The format is functional.

Assay [8] is described as follows: NIH3T3 cell viability loss – ATP luminescence, mouse fibroblasts, counter-screen, dose response (AID 2010).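 Further: cells exposed to compound for about 90 hours before reading.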 In kind it is functional, cell-based.
In the next assay the test system is Vero. The experiment in a line: cells. The format is functional. Conditions: Chlorocebus sabaeus.
The nature of assay [9]: viability loss in THP-1 monocytes – THP-1 cells, cytotoxicity control for Vif-APOBEC3G degradation inhibitor project, dose response (AID 1117359). In kind it is functional. Particulars: THP-1.

SMILES strings stand for the structures. Calls of active or inactive are those of the source.

Sequence of G-protein coupled receptor 183 (P32249 whole entry): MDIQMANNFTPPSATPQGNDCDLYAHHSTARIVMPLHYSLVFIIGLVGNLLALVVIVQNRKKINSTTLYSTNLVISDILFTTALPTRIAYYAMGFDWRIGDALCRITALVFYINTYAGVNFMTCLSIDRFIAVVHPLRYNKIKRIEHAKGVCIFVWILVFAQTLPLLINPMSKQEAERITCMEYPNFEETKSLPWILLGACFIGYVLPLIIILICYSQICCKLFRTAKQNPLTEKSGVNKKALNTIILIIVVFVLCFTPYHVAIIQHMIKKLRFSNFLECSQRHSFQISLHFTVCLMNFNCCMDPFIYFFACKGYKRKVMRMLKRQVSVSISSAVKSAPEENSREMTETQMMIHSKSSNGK
Sequence of Sphingosine 1-phosphate receptor 2 (O95136 whole entry): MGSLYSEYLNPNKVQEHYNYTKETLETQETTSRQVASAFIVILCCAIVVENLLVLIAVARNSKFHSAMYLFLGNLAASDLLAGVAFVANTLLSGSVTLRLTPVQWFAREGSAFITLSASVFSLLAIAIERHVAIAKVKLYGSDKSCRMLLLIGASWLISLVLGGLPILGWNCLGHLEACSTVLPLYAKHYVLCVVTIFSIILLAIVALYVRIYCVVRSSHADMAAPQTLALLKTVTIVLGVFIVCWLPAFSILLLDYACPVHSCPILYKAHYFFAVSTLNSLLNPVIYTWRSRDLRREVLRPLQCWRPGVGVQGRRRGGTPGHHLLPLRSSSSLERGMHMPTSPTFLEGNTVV

Consider `COc1cccc(CN(C)C[C@H]2OCc3ccccc3-c3c(n(C)c4ccccc34)C(=O)N([C@H](C)CO)C[C@H]2C)c1`, for which the AC50 in assay [1] is > 39 µM (inactive); in assay [2], 6.01 µM (active).
Consider `O=C(/C=C/c1ccc(Cl)cc1F)N1CCN(S(=O)(=O)c2ccccc2)CC1`, for which the IC50 in assay [3] was 0.184 µM (active).
With `CN(C)CCOC(C)(c1ccccc1)c1ccccn1` (configuration not stated) [DOXYLAMINE SUCCINATE], the IC50 in assay [4] was > 33.3 µM (inactive).
Take `Nc1c(C(=O)NCCCc2ccccc2)c2nc3ccccc3nc2n1Cc1cccs1`: the EC50 in assay [5] is 2.2 µM (active); in assay [6], 2.17 µM (active); on Protein RecA it was 3.3 µM (active); in [8], > 60 µM (not active). The AC50 in assay [7] was 29.3 µM (active). The 50% cytotoxic concentration (CC50) in the assay on Vero is > 25 µM (active).
`NS(=O)(=O)c1cccc(NS(=O)(=O)c2ccc(/C=C/C(=O)OCC(=O)c3ccccc3)cc2)c1`: in assay [9], the cytotoxic concentration (CC50) was > 40 µM (active).
On to `O=C(/C=C/c1ccc(Br)cc1)N1CCN(Cc2ccc(Cl)cc2F)CC1`, for which the IC50 in [3] is 0.00811 µM (active).

Broadly, the AC50 is the concentration at which the activity in the assay is half-maximal. Usually IC50 stands for the midpoint of a concentration-inhibition curve. As usually defined, the EC50 is the concentration that produces a half-maximal response. Usually CC50 stands for the concentration at which the toxic effect on the cells reaches its halfway point.

The record behind these values is ChEMBL document CHEMBL1201862, “PubChem BioAssay data set” (2004).
